Laboratory results taken from ChEMBL document CHEMBL6071179, “New LsrK Ligands as AI-2 Quorum Sensing Interfering Compounds against Biofilm Formation” (J Med Chem, 2024).
Calls of active or inactive are those of the source. The rule behind the calls is not given here.

Key:
[1] = target: T1, Autoinducer-2 kinase (Bacteria) (UniProt P77432); assay: Binding affinity to LSRK (unknown origin) assessed as change in melting temperature at 500 ug/ml by SYPRO orange staining based differential scanning fluorimetry assay; settings: dose 500.0 µg/ml
T1 sequence (whole entry): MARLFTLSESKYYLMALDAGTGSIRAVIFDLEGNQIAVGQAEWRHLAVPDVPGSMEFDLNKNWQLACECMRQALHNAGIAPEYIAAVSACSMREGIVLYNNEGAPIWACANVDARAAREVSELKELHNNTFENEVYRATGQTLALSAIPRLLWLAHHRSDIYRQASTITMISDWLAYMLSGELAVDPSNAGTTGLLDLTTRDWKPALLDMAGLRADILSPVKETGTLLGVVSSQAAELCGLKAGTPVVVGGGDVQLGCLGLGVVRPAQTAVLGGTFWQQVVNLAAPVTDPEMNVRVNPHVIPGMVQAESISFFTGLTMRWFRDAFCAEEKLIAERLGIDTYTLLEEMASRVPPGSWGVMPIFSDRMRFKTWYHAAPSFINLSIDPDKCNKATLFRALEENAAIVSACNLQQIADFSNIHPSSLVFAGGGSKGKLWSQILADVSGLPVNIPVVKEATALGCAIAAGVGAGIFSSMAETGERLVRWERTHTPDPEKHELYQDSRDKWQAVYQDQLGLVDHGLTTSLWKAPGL

[2] = system: Pseudomonas aeruginosa; assay: Antibiofilm activity against Pseudomonas aeruginosa PAO1 at 500 ug/ml incubated for […] by crystal violet staining based microplate reader assay; type: functional; settings: dose 500 µg/ml
[3] = target: T1, Autoinducer-2 kinase (Bacteria); assay: Binding affinity to LsrK (unknown origin) assessed as decrease in ellipticity at 2 to 20 uM by Far-UV CD spectra; settings: dose 2-20 µM
[4] = target: T1, Autoinducer-2 kinase (Bacteria); assay: Binding affinity to LsrK (unknown origin) assessed as reduction in fluorescence intensity at 1 uM by intrinsic tryptophan fluorescence spectroscopy
[5] = target: T1, Autoinducer-2 kinase (Bacteria); assay: Binding affinity to LsrK (unknown origin) assessed as reduction in fluorescence intensity by intrinsic tryptophan fluorescence spectroscopy
[6] = system: Staphylococcus aureus; assay: Antibiofilm activity against Staphylococcus aureus BHICC at 500 ug/ml incubated for 24 hrs by crystal violet staining based microplate reader assay; type: functional; settings: dose 500 µg/ml
[7] = system: Pseudomonas aeruginosa; assay: Inhibition of Pseudomonas aeruginosa bacterial growth at 500 ug/ml incubated for 20 hrs by microplate reader assay; type: functional, organism-based; settings: dose 500.0 µg/ml
[8] = system: Staphylococcus aureus; assay: Inhibition of Staphylococcus aureus bacterial growth at 500 ug/ml incubated for 20 hrs by microplate reader assay; type: functional, organism-based; settings: dose 500.0 µg/ml
[9] = Inhibition of Vibrio harveyi BB170 AI-2 mediated Quorum sensing system assessed as reduction in bioluminescence incubated for 8 hrs
[10] = target: T1, Autoinducer-2 kinase (Bacteria); assay: Binding affinity to LSRK (unknown origin) assessed as change in melting temperature at 500 ug/ml in presence of ATP by SYPRO orange staining based differential scanning fluorimetry assay; settings: dose 500.0 µg/ml
[11] = Inhibition of Vibrio harveyi BB120 AI-2 mediated Quorum sensing system assessed as reduction in bioluminescence incubated for 8 hrs
[12] = system: Vibrio harveyi; assay: Inhibition of Vibrio harveyi BB886 bacterial growth at 4 to 500 ug/ml incubated for 24 hrs by resazurin dye based microplate reader assay; type: functional, organism-based; settings: dose 4-500 µg/ml
[13] = system: Vibrio harveyi; assay: Inhibition of Vibrio harveyi BB120 bacterial growth at 4 to 500 ug/ml incubated for 24 hrs by resazurin dye based microplate reader assay; type: functional, organism-based; settings: dose 4-500 µg/ml
[14] = Inhibition of Vibrio harveyi BB886 AI-1 mediated Quorum sensing system assessed as reduction in bioluminescence incubated for 8 hrs
[15] = target: T1, Autoinducer-2 kinase (Bacteria); assay: Binding affinity to LsrK (unknown origin) by STD NMR assay

For `CC1(C)OC[C@@H](C(=O)N[C@@H](Cc2ccccc2)C(=O)O)O1`, the ΔTm [1] was over 1 °C, the MBIC50 [2] was 34.4 µg/mL and the Activity [3] was “Dose-Dependent Effect”. For the same molecule, the Flu intensity [4] was 12%, the Activity [5] was “Dose-Dependent Effect” and the MBIC50 [6] was 26.3 µg/mL.
With `O=C(N[C@@H](Cc1ccccc1)C(=O)O)C1COC2(CCCCC2)O1` (stereo partly drawn) the inhibition [7] was “inactive”, the MBIC50 [2] was 46.2 µg/mL and the inhibition [8] was “inactive”. The MBIC50 [6] was 61.5 µg/mL.
With `Cn1nc(C2COC3(CCCCC3)O2)cc1-c1ccccc1` (stereo not drawn) the inhibition [7] was “inactive”, the MBIC50 [2] was 373 µg/mL and the inhibition [8] was “inactive”. The MBIC50 [6] was 121.4 µg/mL.
For `COC(=O)[C@H](C)NC(=O)[C@H](Cc1ccccc1)NC(=O)[C@@H]1COC(C)(C)O1`, the ΔTm [1] was over 1 °C, the MBIC50 [2] was 25.4 µg/mL and the Activity [5] was “Dose-Dependent Effect”. It also gave an MBIC50 [6] of 82.2 µg/mL.
With `CC1(C)OC[C@H](C(=O)N[C@@H](Cc2ccccc2)C(=O)O)O1` the ΔTm [1] was over 1 °C, the MBIC50 [2] was 30.4 µg/mL and the Activity [3] was “Dose-Dependent Effect”. For the same molecule, the Flu intensity [4] was 6%, the Activity [5] was “Dose-Dependent Effect” and the MBIC50 [6] was 25.4 µg/mL.
`Cn1nc(-c2ccccc2)cc1C1COC2(CCCCC2)O1` (stereo not drawn) showed an MBIC50 [6] of 55.2 µg/mL.
For `COC(=O)[C@H](C)NC(=O)[C@H](Cc1ccccc1)NC(=O)C1COC(C)(C)O1` (stereo partly drawn), the inhibition [9] was “Active”, the inhibition [7] was “inactive” and the MBIC50 [2] was 29.1 µg/mL. The inhibition [8] was “inactive”, the ΔTm [10] was over 2 °C and the inhibition [11] was “Active”. The inhibition [12] was “inactive”, the inhibition [13] was “inactive” and the inhibition [14] was “inactive”. It also gave an MBIC50 [6] of 152.3 µg/mL.
`CCCCCCCN(CCN(CC(=O)O)CC(=O)O)CC(=O)O` gave an IC50 [9] of 400 nM.
In the case of `COC(=O)[C@H](Cc1ccccc1)NC(=O)C1COC2(CCCCC2)OC1`, the MBIC50 [6] is reported as 85.8 µg/mL.
In the case of `CC1(C)OCC(C(=O)N[C@@H](Cc2ccccc2)C(=O)O)O1` (stereo partly drawn), the inhibition [9] is reported as “Active”, the inhibition [7] is reported as “inactive” and the MBIC50 [2] is reported as 27.7 µg/mL. For the same molecule, the inhibition [8] was “inactive”, the ΔTm [10] was over 2 °C and the inhibition [11] was “Active”. The inhibition [12] was “inactive”, the inhibition [13] was “inactive” and the inhibition [14] was “inactive”. It also gave an MBIC50 [6] of 34.6 µg/mL.
With `CC(=O)N[C@@H](CS)C(=O)O` [ACETYLCYSTEINE] the MBIC50 [2] was 14 µg/mL.
Molecule `COC(=O)[C@H](Cc1ccccc1)NC(=O)C(O)CO` (stereo partly drawn) has an MBIC50 [6] of 173 µg/mL.
In the case of `O=C(NCCc1ccccc1)C1COC2(CCCCC2)OC1`, the Activity [15] is reported as “Active”, the ΔTm [1] is reported as over 1 °C and the inhibition [9] is reported as “Active”. The inhibition [7] was “inactive”, the MBIC50 [2] was 6.2 µg/mL and the Activity [3] was “Dose-Dependent Effect”. The inhibition [8] was “inactive”, the ΔTm [10] was over 2 °C and the inhibition [11] was “Active”. The Activity [5] was “Dose-Dependent Effect”, the inhibition [12] was “inactive” and the inhibition [13] was “inactive”. For the same molecule, the inhibition [14] was “inactive” and the MBIC50 [6] was 16.2 µg/mL.
For `O=C(NCc1ccccc1)C1COC2(CCCCC2)O1` (stereo not drawn), the MBIC50 [6] was 1913 µg/mL.
Work on `O=C(N[C@@H](Cc1ccccc1)C(=O)O)C1COC2(CCCCC2)OC1` yielded an MBIC50 [2] of 50 µg/mL and an MBIC50 [6] of 20.6 µg/mL.
`O=C(NCCc1ccccc1)C1COC2(CCCCC2)O1` (stereo not drawn) gave an MBIC50 [2] of 38.3 µg/mL and an MBIC50 [6] of 92.3 µg/mL.
`O=C(NCc1ccccc1)C(O)CO` (stereo not drawn) showed an MBIC50 [6] of 128.2 µg/mL.
In the case of `COC(=O)[C@H](C)NC(=O)[C@H](Cc1ccccc1)NC(=O)[C@H]1COC(C)(C)O1`, the MBIC50 [2] is reported as 31.7 µg/mL, the Activity [5] is reported as “Dose-Dependent Effect” and the MBIC50 [6] is reported as 169.7 µg/mL.
In the case of `CC1(C)OCC(C(=O)NCc2ccccc2)O1` (stereo not drawn), the MBIC50 [2] is reported as 36.6 µg/mL.
For `COC(=O)[C@H](Cc1ccccc1)NC(=O)C1COC2(CCCCC2)O1` (stereo partly drawn), the MBIC50 [2] was 60.5 µg/mL and the MBIC50 [6] was 71.1 µg/mL.
In the case of `O=C(NCc1ccccc1)C1COC2(CCCCC2)OC1`, the MBIC50 [2] is reported as 40.8 µg/mL.
With `COC(=O)[C@H](C)NC(=O)[C@H](Cc1ccccc1)NC(=O)C1OCC2(CCCCC2)CO1` the MBIC50 [2] was 483 µg/mL and the MBIC50 [6] was 55.9 µg/mL.
For `c1ccc(-c2cc(C3COC4(CCCCC4)O3)[nH]n2)cc1` (stereo not drawn), the inhibition [7] was “inactive”, the MBIC50 [2] was 22.5 µg/mL and the inhibition [8] was “inactive”. It also gave an MBIC50 [6] of 45.1 µg/mL.
In the case of `CCOC(=O)N1CCC(=C2c3ccc(Cl)cc3CCc3cccnc32)CC1` [LORATADINE], the MBIC50 [6] is reported as 23 µg/mL.
